Assay results published in US6391917B1, “Dialkyl ureas as calcitonin mimetics” (ZymoGenetics, Inc., priority 1998, dated 2002).

Assay: Induction of hypocalcemia in rats
Format: in vivo
Settings: weanling rats, tail vein, 0.5, 2.5, 5, 50 and 100 ng/rat, serum calcium one hour later
Description: This assay is based on the in vivo acute effect of calcitonin on osteoclasts, which causes rapid retraction of osteoclasts from bone surface (typically within 30 minutes) and which results in decreased bone resorption. See Mills, et al., in Endocrinology 1971—Proceedings of the Third International SymDosium, Taylor (ed), Heinemann Medical, London, pp. 79-88 (1972) and Singer, et al., Clin. Endocrinol. 5(Supp):333s-40s, 1976. The assay method was modified from the method described by Sturtridge and Kumar, Lancet 545:725-6, 1968. For the assay of hypocalcemic activity, weanling male Holtzman Sprague-Dawley rats (22 days old) are infused with vehicle (PBS with 1 mM HCl and 0.1% BSA), calcitonin or calcitonin mimetics through the tail vein. One hour later, blood samples are collected by orbital sinus puncture to determine serum levels of calcium. A decrease in serum calcium indicates a hypocalcemic response. The hypocalcemic response is dose-dependent as determined using salmon calcitonin (0.5, 2.5, 5, 50 and 100 ng/rat) in this model. Inhibition of PTH-induced hypercalcemia in TPTX rats

Substance: salmon calcitonin
- hypocalcemic response: dose-dependent
